Key:
[1] = system: Scle (DNA, G4) TGGGGGGGTGGGTGGGT; experiment: CD melting, 264 nm; details: 50 mM KCl; mBR buffer, pH 7.0; derived from two Tm (81.5, >100); indicative values
[2] = system: HTR (DNA, G4) GGGTTAGGGTTAGGGTTAGGG; experiment: CD melting, 294 nm; details: 50 mM KCl; mBR buffer, pH 7.0; derived from two Tm (63.5, 64.0); indicative values
[3] = system: TBA (DNA, G4) GGTTGGTGTGGTTGG; experiment: CD melting, 294 nm; details: 50 mM KCl; mBR buffer, pH 7.0; derived from two Tm (46.5, 48.5); indicative values
[4] = system: Hema (DNA, G4) GGGGTCGGGCGGGCCGGGTG; experiment: CD melting, 264 nm; details: 50 mM KCl; mBR buffer, pH 7.0; derived from two Tm (72.0, 86.0); indicative values
[5] = system: STAT (DNA, G4) GGGCGGGCGGGCGGG; experiment: CD melting, 264 nm; details: mBR buffer, pH 7.0, indicative values
[6] = system: ionK (DNA, G4) GGGTTAGGGTTAGGGTAGGG; experiment: CD melting, 294 nm; details: 50 mM KCl; mBR buffer, pH 7.0; derived from two Tm (59.1, 58.0); indicative values
[7] = system: VEGF (DNA, G4) GGGGCGGGCCGGGGGCGGG; experiment: CD melting, 264 nm; details: mBR buffer, pH 7.0, indicative values
[8] = system: TFO1 (DNA, triplex) AAAAAAAACCCCTTTTTTTTCCCCTTTTTTTT; experiment: CD melting, 282 nm; details: no added salt; mBR buffer, pH 7.0; derived from two Tm (20.4, 17.7); indicative values
[9] = system: G3A (DNA, G4) GGGAGGGAGGGAGGGA; experiment: CD titration, PAGE; details: 50 mM NaCl or KCl; mBR buffer, pH 7.0; up to 260 µM RhG (CD), 130 µM (PAGE)
[10] = system: G3C (DNA, G4) GGGCGGGCGGGCGGGC; experiment: CD titration, PAGE; details: 50 mM NaCl or KCl; mBR buffer, pH 7.0; up to 260 µM RhG (CD), 130 µM (PAGE)
[11] = system: HTR (DNA, G4) GGGTTAGGGTTAGGGTTAGGG; experiment: CD melting, 294 nm; details: 50 mM NaCl; 25 mM mBR buffer, pH 7.0; ligand concentration not given; indicative value
[12] = system: Scle (DNA, G4) TGGGGGGGTGGGTGGGT; experiment: CD melting, 264 nm; details: 50 mM NaCl; 25 mM mBR buffer, pH 7.0; ligand concentration not given; indicative value
[13] = system: TBA (DNA, G4) GGTTGGTGTGGTTGG; experiment: CD melting, 294 nm; details: 50 mM NaCl; 25 mM mBR buffer, pH 7.0; ligand concentration not given; indicative value
[14] = system: Hema (DNA, G4) GGGGTCGGGCGGGCCGGGTG; experiment: CD melting, 264 nm; details: 50 mM NaCl; 25 mM mBR buffer, pH 7.0; ligand concentration not given; indicative value
[15] = system: ionK (DNA, G4) GGGTTAGGGTTAGGGTAGGG; experiment: CD melting, 294 nm; details: 50 mM NaCl; 25 mM mBR buffer, pH 7.0; ligand concentration not given; indicative value
[16] = system: Scle (DNA, G4) TGGGGGGGTGGGTGGGT; experiment: induced CD and UV-Vis titration; details: 50 mM KCl; mRB buffer, pH 7.0; 130 µM RhG, DNA up to 27 µM
[17] = system: HTR (DNA, G4) GGGTTAGGGTTAGGGTTAGGG; experiment: temperature gradient gel electrophoresis (TGGE); details: 2.5 mM KCl; 25 mM mBR buffer, pH 7.0; 260 µM RhG in gel; antiparallel form; parallel form >62 ± 2 °C with RhG

ΔTm (Tm shift) [1]: > 18.5 °C
ΔTm (Tm shift) [2]: 0.5 °C
ΔTm (Tm shift) [3]: 2.0 °C
ΔTm (Tm shift) [4]: 14.0 °C
ΔTm (RhG minus no ligand) ([5]; 50 mM KCl, derived from two Tm (92.8, >100)): > 7.2 °C
ΔTm (RhG minus no ligand) ([5]; 50 mM NaCl, derived from two Tm (54.5, 76.5)): 22.0 °C
ΔTm (RhG minus no ligand) [6]: -1.1 °C
ΔTm (RhG minus no ligand) ([7]; 50 mM KCl, derived from two Tm (85.6, 87.9)): 2.3 °C
ΔTm (RhG minus no ligand) ([7]; 50 mM NaCl, derived from two Tm (47.5, 82.0)): 34.5 °C
ΔTm (Tm shift) [8]: -2.7 °C
binding [9]: yes
binding [10]: yes
Tm [11]: 52.0 (no ligand 52.0) °C
Tm [12]: 77.0 (no ligand 62.0) °C
Tm [13]: 26.8 (no ligand 20.0) °C
Tm [14]: 54.3 (no ligand ND) °C
Tm [15]: 48.5 (no ligand 46.2) °C
binding [16]: yes
Tm [17]: 50.6 (no ligand 46.5) °C
Structure (SMILES): CCN=c1cc2oc3cc(NCC)c(C)cc3c(-c3ccccc3C(=O)OCC)c-2cc1C

Reference: publication PMC8305571 (2021)
